Patent US20150292030A1, “METHODS OF CHARACTERIZING AND TREATING MOLECULAR SUBSET OF MUSCLE-INVASIVE BLADDER CANCER” (BOARD OF REGENTS, THE UNIVERSITY OF TEXAS SYSTEM, priority 2012, published 2015)

Experiments:
[1] = tested on: human bladder cancer cell lines; experiment: Proliferation (MTT) assay of BGJ398 on a panel of 30 human bladder cancer cell lines; format: cell-based; settings: lines SW780, UC1, RT112, RT4 and UC14; FIG. 6
Text: FIG. 6. Proliferation (MTT) assay testing effect of BGJ398 on human bladder cancer cell lines.
To test this possibility, the inventors examined the effects of the FGFR-selective inhibitor BGJ398 on proliferation in the inventor's panel of 30 human bladder cancer cell lines using MTT assays.

[2] = tested on: muscle-invasive bladder cancer; experiment: Pathological response to neoadjuvant chemotherapy at cystectomy by cluster, discovery cohort; format: in vivo, human; settings: cluster 2 (p53-like); FIG. 1D
Text: Tumors and clinical data were obtained from the MD Anderson genitourinary cancers research database. Fresh frozen tissues were obtained from the SPORE Tissue Core. Of note, all patients had previously signed informed consent allowing collection of their tissue and of their clinical data in the genitourinary research database. […] Patients were classified as muscle invasive for tumor growth into the muscularis propria; otherwise, they were classified as non-muscle invasive. Total RNA from human specimens were isolated using mirVana miRNA isolation kit (Ambion, Inc).
Presurgical (neoadjuvant) cisplatin-based chemotherapy is the current standard-of-care for high-risk muscle-invasive bladder cancer. […] To examine the relationship between the 3 molecular subsets and chemotherapy sensitivity, the inventors identified 18 patients within their discovery cohort that had received neoadjuvant chemotherapy and compared the pathological response rates within each cluster. Strikingly, whereas over half of the basal/cluster 1 (3/5) and luminal/cluster 3 (4/6) tumors responded to chemotherapy, none (0/7) of the p53-like cluster 2 tumors was downstaged in this initial cohort (Table 3). […] Gene expression profiling classified 3 of the tumors as basal, 4 as luminal, and 9 as p53-like (FIG. 7). […]

In the case of `CCN1CCN(c2ccc(Nc3cc(N(C)C(=O)Nc4c(Cl)c(OC)cc(OC)c4Cl)ncn3)cc2)CC1` [BGJ398], the “drug sensitivity of proliferation (MTT)” value [1] is reported as “most drug-sensitive”.
`N.N.[Cl][Pt][Cl]` [cisplatin] was tested, and the observed cisplatin resistance [2] was “resistance”.
